Results taken from patent US12240854B2, “TRAF 6 inhibitors” (Helmholtz Zentrum München - Deutsches Forschungszentrum für …, priority 2018, dated 2025).
“Also recorded” adds a separate entry of the source.

Columns and labels:
[1] = system: BJAB (GCB DLBCL); assay: Cell viability in DLBCL, BJAB; type: cell-based; conditions: 30 μM, 9 days
Method: (§1) To determine the effects of C25-140 on MYD88-dependent ABC-DLBCL, we chose the HBL1 (ABC-DLBCL-MYD88 L265P), U2932 (ABC DLBCL-MYD88 wt) and BJAB (GCB DLBCL) cell lines. 1×10^6 cells of each cell line was seeded in 5 ml and treated with 30 μM compound C25-140 (compound 3) or DMSO. The entire experiment was carried out for 9 days. Every day 500 μl were taken and viable cell number was acquired using the ViCEII cell counter (Beckmann Coulter). At days 4 and 8 of the experiment the volume was again adjusted to 5 ml and samples were supplemented with 30 μM compound C25-140 or DMSO. This process was necessary to ensure linear proliferation of DMSO treated cells. All curves of C25-140 treated samples were referred to the corresponding DMSO treated controls.

[2] = system: IKK kinase activity in MEF cells; assay: IKK kinase assay in MEF cells; type: cell-based, mouse
Method: For MEF cells, 5.5×10^5 cells were seeded, then treated with compound for 6 hours and eventually stimulated with IL-1β or TNFα for 8 minutes. 1×10^6 Jurkat T-cells were treated with compound for 6 hours and finally stimulated with PMA (400 ng/ml) and lonomycin (600 ng/ml) for 8 minutes. After cell lysis in Co-IP lysis buffer (150 mM NaCl; 25 mM Hepes (pH 7.5); 0.2% NP-40; 1 mM Glycerol; 10 mM NaF; 8 mM β-Glycerophosphat; 1 mM DTT; 300 μM Sodium-vanadate; complete protease inhibitor), input samples were taken and the supernatant was then incubated with 6 μL IKKγ antibody FL-419 (Santa Cruz Biotechnology). Upon incubation with Protein-G-Sepharose beads (GE Healthcare), beads were washed in Co-IP wash buffer (150 mM NaCl; 25 mM Hepes (pH 7.5); 0.2% NP-40; 1 mM Glycerol) and transferred into kinase reaction buffer ([…] HEPES pH7.9; 10 mM MgCl2; 20 μM ATP; 20 mM β-Glycerophosphat; 200 μM Sodium-Vanadate; 1 mM DTT) supplemented with […] GST-IκBα (1-53) and 0.5 μL ^32P-γ-ATP. After 30 minutes incubation at 37° C., reaction was stopped and analyzed by autoradiography as well as Western Blot after separation on SDS-PAGE.

[3] = system: U2932 (ABC DLBCL-MYD88 wt); assay: Cell viability in DLBCL, U2932; type: cell-based; conditions: U2932, 30 μM, 9 days
Method: as §1

[4] = system: HepG2 cells; assay: CellTiter-Glo viability assay, HepG2 cells; type: cell-based; conditions: 6 or 24 hours incubation
Method: For cell viability experiments using the CellTiter-Glo® 2.0 system (Promega), MEF cells (1.2×10^3 cells/well), HepG2 cells (4×10^3 cells/well) and Jurkat T-cells (5×10^3 cells/well) were seeded in 384 well plates. After 18 hours, cells were treated with compounds using the Sciclone G3 automation system. After 6 or 24 hours incubation, the luciferase measurement was performed according to the manufacturer's manual.

[5] = target: T1, TRAF6-Ubc13 binding in HEK293T cells (Homo sapiens, UniProt Q9Y4K3); assay: Co-immunoprecipitation of HA-TRAF6 and Ubc13 in HEK 293T cells; type: cell-based
T1 construct: RING-Zincfinger1 (RZ1) domain (residues 50-159) of human TRAF6 wildtype; expressed in transfected cells; host or cells: HEK 293T
T1 sequence (Q9Y4K3 50-159): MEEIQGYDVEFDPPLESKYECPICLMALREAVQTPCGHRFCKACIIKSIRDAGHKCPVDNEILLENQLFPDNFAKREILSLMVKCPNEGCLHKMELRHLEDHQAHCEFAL
Method: To study the interaction of TRAF6 and Ubc13 in cells, 1×10^6 293T cells were seeded and after 18 hours cells were transfected with 1 μg pEF-HA empty or pEF-HA-TRAF6 RZ1 plasmid using the X-tremeGENE HP DNA transfection reagent (Roche). 6 hours upon transfection, cells were treated with compound or DMSO. After 42 hours further incubation, cells were harvested in Co-IP lysis buffer and HA-TRAF6 was immunoprecipitated with anti-HA affinity matrix (Roche). Binding of Ubc13 to TRAF6 was examined in Western Blot analysis.

[6] = system: HBL1 (ABC-DLBCL-MYD88 L265P); assay: Cell viability in DLBCL, HBL1; type: cell-based; conditions: HBL1, 30 μM, added at day 0, 4 and 8, 9 days
Method: as §1

[7] = system: osteosarcoma cell line U2OS; assay: Cell growth of the osteosarcoma cell line U2OS with or without irradiation; type: cell-based
Method: For analysis of the cell growth of the osteosarcoma cell line U2OS, 5×10^3 cells were seeded in 96 well plates. 18 hours later, cells were treated with C25-140 (compound 3) or DMSO for 6 hours. Using a ^137caesium source (HWM-D2000), selected samples were irradiated with a dose of either 2 Gy or 4 Gy. Cell growth was measured every 24 hours for a period of 7 days by counting Hoechst33342 positive cells in an Operetta High-Content Imaging System (PerkinElmer) and the Harmony/Columbus analysis software (PerkinElmer).

[8] = ADME: plasma stability; type: in vitro ADME
Method: All ADME (plasma stability, plasma protein binding, microsomal stability, Log D, Caco-2 assay, CYP450 inhibition and hERG predictor assay) as well as pharmacokinetic studies (Tmax, Cmax, AUC0-240min, Mean Residence Time, Elimination half life, Elimination rate constant, Volume of Distribution and Clearance) of C25-140 (compound 3) were conducted by Bienta Enamine Biology Services of Bienta/Enamine Ltd.

SMILES: Cc1nn(-c2ccc3nnc(C)n3n2)c(C)c1CCC(=O)N1CCC(Cc2ccccc2)CC1 [Example C25-140, 1-(4-Benzylpiperidin-1-yl)-3-(3,5-dimethyl-1-(3-methyl-[1,2,4]-triazolo-[4,3-b]-pyridazin-6-yl)-1H-pyrazol-4-yl)-propan-1-one]
- viability of GCB DLBCL [1]: did not show any difference in viability; also recorded: not affected
- IKK kinase activity, phosphorylation of IκBα ([2]; IL-1β stimulation): decreased IKK kinase activity; also recorded: decreased phosphorylation of IκBα
- IKK kinase activity, phosphorylation of IκBα ([2]; TNFα stimulation): also affects
- viability of MYD88 wildtype ABC DLBCL [3]: only slightly affected; also recorded: not affected
- metabolic activity and cell viability [4]: did not considerably impact cell viability; also recorded: does not considerably affect metabolic activity and cell viability up to 50 μM; also recorded: at the highest dose of 100 μM toxicity is noticeable
- interaction of endogenous Ubc13 with HA-tagged TRAF6 (co-immunoprecipitation) [5]: reduced interaction; also recorded: most active analogs; also recorded: dose-dependently decreases; also recorded: demonstrated inhibition of TRAF6-Ubc13 binding
- viability of MYD88-dependent ABC-DLBCL [6]: selectively kills ABC-DLBCL with chronic MYD88 signaling; also recorded: significantly reduced viability; also recorded: diminished
- osteosarcoma cell growth ([7]; 30 μM compound + 2Gy irradiation): synergistic effects; also recorded: boosted the effect to the region of 4Gy irradiation; also recorded: decreases cell growth to the same extent as the higher dose of irradiation (4Gy)
- osteosarcoma cell growth ([7]; compound alone at 30 μM): reducing proliferation of U2OS cells to the same degree as 2Gy irradiation; also recorded: same inhibitory impact; also recorded: reduced
- plasma stability [8]: stable
